As a reminder, the EC50 is the concentration that produces a half-maximal response.

This is an account of results in patent publication US10689399B2, “Substituted 3,4,5,6,8,10,14,14a-octahydro-2h-2,6-methanopyrido[1′,2′:4,5]pyrazino[2,1-b][1,3]oxazocines and methods for treating viral infections” (Gilead Sciences, Inc., priority 2012, dated 2020).

This assay has as its system HIV-IIIb. The assay can be described thus: Antiviral assay in MT4 cells. Type of assay: cell-based. As to conditions: Human immunodeficiency virus 1, IIIB, MT4, 120 h, MT4 cells infected with HIV-IIIb, 5 days, CellTiter-Glo; read-out: EC50 nM in MT-4. In outline:
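MT4 cells pre-infected with HIV-IIIb (0.004 m.o.i.) at 37 °C, or mock-infected, then seeded at 2000 cells/well onto 3-fold serially diluted compound (10 concentrations, quadruplicate) in RPMI 1640 with 10% FBS. After 5 days at 37 °C, cell viability read by CellTiter-Glo luminescence.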
Background: In ATP-based viability assays light output follows the ATP content of the culture.

For the molecule `O=C(NCc1cc(Cl)c(F)cc1F)c1cn2c(c(O)c1=O)C(=O)N1[C@H]3CC[C@H](C3)O[C@@H]1C2` [Compound 65, (2R,5 S,13aR)—N-(5-chloro-2,4-difluorobenzyl)-8-hydroxy-7,9-dioxo-2,3,4,5,7,9,13,13a-octahydro-2,5-methanopyrido[1′,2′: 4,5]pyrazino[2,1-b][1,3]oxazepine-10-carboxamide], the EC50 worked out at 2.4 nM.

In the case of `O=C(NCc1ccc(F)c(F)c1)c1cn2c(c(O)c1=O)C(=O)N1[C@H]3CC[C@H](C3)[C@@H]1C2` [Compound 66, (1R,4S,12aR)—N-(3,4-difluorobenzyl)-7-hydroxy-6,8-dioxo-1,2,3,4,6,8,12,12a-octahydro-1,4-methanodipyrido[1,2-a:1′,2′-d]pyrazine-9-carboxamide], the EC50 amounted to 9.4 nM.

As for `O=C(NCc1ccc(F)cc1C(F)(F)F)c1cn2c(c(O)c1=O)C(=O)N1[C@H]3CC[C@H](C3)[C@@H]1C2` [Compound 67, (1R,4S,12aR)—N-(4-fluoro-2-(trifluoromethyl)benzyl)-7-hydroxy-6,8-dioxo-1,2,3,4,6,8,12,12a-octahydro-1,4-methanodipyrido[1,2-a:1′,2′-d]pyrazine-9-carboxamide], the EC50 was found to be 10.7 nM.

For `O=C(NCc1ccc(F)cc1Cl)c1cn2c(c(O)c1=O)C(=O)N1[C@H]3CC[C@H](C3)[C@@H]1C2` [Compound 68, (1R,4S,12aR)—N-(2-chloro-4-fluorobenzyl)-7-hydroxy-6,8-dioxo-1,2,3,4,6,8,12,12a-octahydro-1,4-methanodipyrido[1,2-a:1′,2′-d]pyrazine-9-carboxamide], the EC50 stood at 2.7 nM.

Consider `O=C(NCc1ccc(F)c(Cl)c1F)c1cn2c(c(O)c1=O)C(=O)N1[C@H]3CC[C@H](C3)[C@@H]1C2` [Compound 69, (1R,4S,12aR)—N-(3-chloro-2,4-difluorobenzyl)-7-hydroxy-6,8-dioxo-1,2,3,4,6,8,12,12a-octahydro-1,4-methanodipyrido[1,2-a:1′,2′-d]pyrazine-9-carboxamide], for which the EC50 worked out at 1.9 nM.

Regarding `Cc1cccc(CNC(=O)c2cn3c(c(O)c2=O)C(=O)N2[C@H]4CC[C@H](C4)[C@@H]2C3)c1F` [Compound 70, (1R,4S,12aR)—N-(2-fluoro-3-methylbenzyl)-7-hydroxy-6,8-dioxo-1,2,3,4,6,8,12,12a-octahydro-1,4-methanodipyrido[1,2-a:1′,2′-d]pyrazine-9-carboxamide], the 50% effective concentration (EC50) is 5.1 nM.

With `O=C(NCc1c(Cl)ccc(Cl)c1F)c1cn2c(c(O)c1=O)C(=O)N1[C@H]3CC[C@H](C3)[C@@H]1C2` [Compound 71, (1R,4S,12aR)—N-(3,6-dichloro-2-fluorobenzyl)-7-hydroxy-6,8-dioxo-1,2,3,4,6,8,12,12a-octahydro-1,4-methanodipyrido[1,2-a:1′,2′-d]pyrazine-9-carboxamide], the concentration giving a half-maximal response (EC50) is 2.6 nM.

Turning to `O=C(NCc1cccc(Cl)c1)c1cn2c(c(O)c1=O)C(=O)N1[C@H]3CC[C@H](C3)[C@@H]1C2` [Compound 72, (1R,4S,12aR)—N-(3-chlorobenzyl)-7-hydroxy-6,8-dioxo-1,2,3,4,6,8,12,12a-octahydro-1,4-methanodipyrido[1,2-a:1′,2′-d]pyrazine-9-carboxamide], the EC50 was found to be 4.3 nM.

Take `O=C(NCc1c(F)ccc(Cl)c1F)c1cn2c(c(O)c1=O)C(=O)N1[C@H]3CC[C@H](C3)[C@@H]1C2` [Compound 73, (1R,4S,12aR)—N-(3-chloro-2,6-difluorobenzyl)-7-hydroxy-6,8-dioxo-1,2,3,4,6,8,12,12a-octahydro-1,4-methanodipyrido[1,2-a:1′,2′-d]pyrazine-9-carboxamide]: the EC50 is 1.8 nM.

`O=C(NCc1cccc(C(F)(F)F)c1F)c1cn2c(c(O)c1=O)C(=O)N1[C@H]3CC[C@H](C3)[C@@H]1C2` [Compound 74, (1R,4S,12aR)—N-(2-fluoro-3-(trifluoromethyl)benzyl)-7-hydroxy-6,8-dioxo-1,2,3,4,6,8,12,12a-octahydro-1,4-methanodipyrido[1,2-a:1′,2′-d]pyrazine-9-carboxamide]: the EC50 is 29.3 nM.

Regarding `O=C(NCc1ccc(F)c(Cl)c1)c1cn2c(c(O)c1=O)C(=O)N1[C@H]3CC[C@H](C3)[C@@H]1C2` [Compound 75, (1R,4S,12aR)—N-(3-chloro-4-fluorobenzyl)-7-hydroxy-6,8-dioxo-1,2,3,4,6,8,12,12a-octahydro-1,4-methanodipyrido[1,2-a:1′,2′-d]pyrazine-9-carboxamide], the EC50 stood at 2.8 nM.

With `O=C(NCc1ncc(F)cc1F)c1cn2c(c(O)c1=O)C(=O)N1[C@H]3CC[C@H](C3)[C@@H]1C2` [Compound 76, (1R,4S,12aR)—N-((3,5-difluoropyridin-2-yl)methyl)-7-hydroxy-6,8-dioxo-1,2,3,4,6,8,12,12a-octahydro-1,4-methanodipyrido[1,2-a:1′,2′-d]pyrazine-9-carboxamide], the EC50 stood at 17.8 nM.

In the case of `C[C@@H](NC(=O)c1cn2c(c(O)c1=O)C(=O)N1[C@H]3CC[C@H](C3)[C@@H]1C2)c1c(F)cc(F)cc1F` [Compound 77, (1R,4 S,12aR)-7-hydroxy-6,8-dioxo-N—((R)-1-(2,4,6-trifluorophenyl)ethyl)-1,2,3,4,6,8,12,12a-octahydro-1,4-methanodipyrido[1,2-a:1′,2′-d]pyrazine-9-carboxamide], the EC50 was found to be 5.6 nM.

Consider `C[C@@H](NC(=O)c1cn2c(c(O)c1=O)C(=O)N1[C@@H]3CC[C@H](C3)O[C@@H]1C2)c1c(F)cc(F)cc1F` [Compound 78, (2R,13aR)-8-hydroxy-7,9-dioxo-N—((R)-1-(2,4,6-trifluorophenyl)ethyl)-2,3,4,5,7,9,13,13a-octahydro-2,5-methanopyrido[1%2′: 4,5]pyrazino[2,1-b][1,3]oxazepine-10-carboxamide], for which the EC50 is 5.6 nM.

Turning to `O=C(NCc1cc(F)c(F)cc1F)c1cn2c(c(O)c1=O)C(=O)N1[C@H]3CC[C@H](C3)[C@@H]1C2` [Compound 79, (1R,4S,12aR)-7-hydroxy-6,8-dioxo-N-(2,4,5-trifluorobenzyl)-1,2,3,4,6,8,12,12a-octahydro-1,4-methanodipyrido[1,2-a:1′,2′-d]pyrazine-9-carboxamide], the EC50 is 3.4 nM.

In the case of `O=C(NCc1cc(Cl)c(F)cc1F)c1cn2c(c(O)c1=O)C(=O)N1[C@H]3CC[C@H](C3)[C@@H]1C2` [Compound 80, (1R,4S,12aR)—N-(5-chloro-2,4-difluorobenzyl)-7-hydroxy-6,8-dioxo-1,2,3,4,6,8,12,12a-octahydro-1,4-methanodipyrido[1,2-a:1′,2′-d]pyrazine-9-carboxamide], the EC50 was found to be 4.6 nM.

As to `O=C(NCc1c(F)cc(F)cc1F)c1cn2c(c(O)c1=O)C(=O)N1[C@H](C2)[C@H]2C[C@H](F)[C@@H]1C2` [Compound 81, (1R,3S,4S,12aS)-3-fluoro-7-hydroxy-6,8-dioxo-N-(2,4,6-trifluorobenzyl)-1,2,3,4,6,8,12,12a-octahydro-1,4-methanodipyrido[1,2-a:1′,2′-d]pyrazine-9-carboxamide], the EC50 worked out at 1.9 nM.

`O=C(NCc1c(F)cc(F)cc1F)c1cn2c(c(O)c1=O)C(=O)N1[C@@H]3C[C@@H](C[C@H]3F)[C@@H]1C2` [Compound 82, (1S,3R,4R,12aR)-3-fluoro-7-hydroxy-6,8-dioxo-N-(2,4,6-trifluorobenzyl)-1,2,3,4,6,8,12,12a-octahydro-1,4-methanodipyrido[1,2-a:1′,2′-d]pyrazine-9-carboxamide]: the EC50 was determined as 2.9 nM.

Take `O=C(NCc1c(F)cc(F)cc1F)c1cn2c(c(O)c1=O)C(=O)N1[C@H](C2)[C@H]2C[C@@H]1C(F)(F)C2` [Compound 83, (1S,4R,12aS)-3,3-di fluoro-7-hydroxy-6,8-dioxo-N-(2,4,6-trifluorobenzyl)-1,2,3,4,6,8,12,12a-octahydro-1,4-methanodipyrido[1,2-a:1′,2′-d]pyrazine-9-carboxamide]: the EC50 turned out to be 1.9 nM.

On to `C[C@@H]1C[C@H]2C[C@@H]1[C@@H]1Cn3cc(C(=O)NCc4c(F)cc(F)cc4F)c(=O)c(O)c3C(=O)N21` [Compound 84, (1S,2R,4 S,12aR)-7-hydroxy-2-methyl-6,8-dioxo-N-(2,4,6-trifluorobenzyl)-1,2,3,4,6,8,12,12a-octahydro-1,4-methanodipyrido[1,2-a:1′,2′-d]pyrazine-9-carboxamide], for which the EC50 stood at 2.9 nM.

As for `O=C(NCc1c(F)cc(F)cc1F)c1cn2c(c(O)c1=O)C(=O)N1[C@H]3CCC[C@H](C3)[C@H]1C2` [Compound 85, (6 aS,7R,11S)-1-hydroxy-2,13-dioxo-N-(2,4,6-trifluorobenzyl)-6,6a,7,8,9,10,11,13-octahydro-2H-7,11-methanopyrido[1′,2′: 4,5]pyrazino[1,2-a]azepine-3-carboxamide], the EC50 came to 2 nM.

With `C[C@H]1C[C@@H]2C[C@H]1N1C(=O)c3c(O)c(=O)c(C(=O)NCc4c(F)cc(F)cc4F)cn3C[C@H]21` [Compound 86, (1R,3S,4R,12aS)-7-hydroxy-3-methyl-6,8-dioxo-N-(2,4,6-trifluorobenzyl)-1,2,3,4,6,8,12,12a-octahydro-1,4-methanodipyrido[1,2-a:1′,2′-d]pyrazine-9-carboxamide], the EC50 was 2.3 nM.

Consider `O=C(NCc1cccc(Cl)c1F)c1cn2c(c(O)c1=O)C(=O)N1[C@H]3CC[C@H](C3)O[C@@H]1C2` [Compound 88, (2R,5S,13aR)—N-(3-chloro-2-fluorobenzyl)-8-hydroxy-7,9-dioxo-2,3,4,5,7,9,13,13a-octahydro-2,5-methanopyrido[1′,2′:4,5]pyrazino[2,1-b][1,3]oxazepine-10-carboxamide], for which the EC50 came to 2.9 nM.

For the molecule `O=C(NCc1cc(F)ccc1F)c1cn2c(c(O)c1=O)C(=O)N1[C@H]3CC[C@H](C3)O[C@@H]1C2` [Compound 89, (2R,5S,13aR)—N-(2,5-difluorobenzyl)-8-hydroxy-7,9-dioxo-2,3,4,5,7,9,13,13a-octahydro-2,5-methanopyrido[1′,2′:4,5]pyrazino[2,1-b][1,3]oxazepine-10-carboxamide], the EC50 stood at 8.4 nM.
